The target in series [1] is T1, CYP2J2 (Homo sapiens, UniProt P51589).
T1 sequence (P51589 1-502): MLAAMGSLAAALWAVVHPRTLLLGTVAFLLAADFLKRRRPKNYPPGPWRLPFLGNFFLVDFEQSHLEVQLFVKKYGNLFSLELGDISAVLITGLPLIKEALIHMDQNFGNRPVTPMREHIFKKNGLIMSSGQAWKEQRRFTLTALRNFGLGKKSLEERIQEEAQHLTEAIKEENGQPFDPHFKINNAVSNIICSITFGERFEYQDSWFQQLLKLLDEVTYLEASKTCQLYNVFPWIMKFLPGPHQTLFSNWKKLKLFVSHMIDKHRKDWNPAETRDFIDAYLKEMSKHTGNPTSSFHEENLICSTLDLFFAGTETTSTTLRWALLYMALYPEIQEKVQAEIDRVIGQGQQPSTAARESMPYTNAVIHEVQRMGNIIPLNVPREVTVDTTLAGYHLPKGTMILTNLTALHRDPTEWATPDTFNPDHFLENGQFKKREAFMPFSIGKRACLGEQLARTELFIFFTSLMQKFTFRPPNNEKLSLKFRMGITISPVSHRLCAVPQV
The experiment in a line: biochemical. Particulars: for y0 (residual rate of AA epoxidation at maximum inhibition): fit to eq S1.

Series [2] addresses T1, CYP2J2. In kind it is binding.
Series [3] has as its target T1, CYP2J2.
Series [4] deals with T1, CYP2J2. This is another data set of the same source.
The target in series [5] is T1, CYP2J2. The experiment in a line: CYP2J2-mediated ebastine. In kind it is biochemical.
For series [6] the following is noted: cited from earlier work.
The target of series [7] is T1, CYP2J2. The experiment in a line: DOX metabolism kinetics by CPR and CYP2J2. Particulars: none detected by LC-MS/MS analysis.
Substrate in series [8]: COc1cccc2c1C(=O)c1c(O)c3c(c(O)c1C2=O)C[C@@](O)(C(=O)CO)C[C@@H]3O[C@H]1C[C@H](N)[C@H](O)[C@H](C)O1
Nature of the series: purified protein, by the assay type. The settings on record: other: CPR with CYP2J2; hyperbolic curve.

Like-named read-outs stand apart in the source and are kept apart here.

At CYP2J2 [1], `COc1cccc2c1C(=N)c1c(O)c3c(c(O)c1C2=O)C[C@@](O)(C(C)=O)C[C@@H]3O[C@H]1C[C@H](N)[C@H](O)[C@H](C)O1` [5-IDN, 5-iminodaunorubicin] had an IC50 of 27.4 ± 0.03 µM and a Ki of 15.6 ± 0.02 µM.

For the molecule `COc1cccc2c1C(=O)c1c(O)c3c(c(O)c1C2=O)CC(O)(C(=O)CO)CC3` (stereo not drawn) [7-de-aDOX, 7-deoxydoxorubicin aglycone], on CYP2J2 [1], the IC50 was 10.2 ± 0.1 µM and the Ki was 5.78 ± 0.03 µM. The same molecule returned a Kd on CYP2J2 [2] of 13.1 ± 1.1 µM. The “NADPH oxidation on addition of CYP2J2 (in words)” value on CYP2J2 [3] is listed as “does not increase”. Moreover, the “metabolism by CYP2J2 to form new products (in words)” value at CYP2J2 [4] is “does not metabolize”.

On CYP2J2 [2], `CCCCC/C=C\C/C=C\C/C=C\C/C=C\CCCC(=O)O` [AA, arachidonic acid] showed a Ki above 200 µM. For the same molecule, at CYP2J2 [2] (100 μM AA, 1 μM DOX), the “inhibition of DOX binding to CYP2J2 (in words)” value is “weakly inhibits”.

On CYP2J2 [1], `COc1cccc2c1C(=O)c1c(O)c3c(c(O)c1C2=O)C[C@@](O)(C(=O)CO)C[C@@H]3O[C@H]1C[C@H](N)[C@H](O)[C@H](C)O1` [DOX, doxorubicin] had an IC50 of 5.48 ± 0.04 µM and an inhibition constant (Ki) of 3.11 ± 0.02 µM. On CYP2J2 [1] (100 μM AA), the “enzyme activity retained in the presence of saturating amounts” value is 23% and the “y0 (residual rate of AA epoxidation at maximum inhibition)” value is listed as 19.8 ± 3.8 pmol (min)^−1 (nmolCYP2J2)^−1. For the same molecule, the Kd on CYP2J2 [2] is 5.32 ± 0.89 µM. Further, the “r0 (intrinsic polarization value)” value at CYP2J2 [2] (1 μM DOX or 7-de-aDOX, 37°C, with 100 μM AA or 60 μM EBS where indicated) is 0.083 ± 0.007. Besides, the “r1 (maximum polarization value)” value on CYP2J2 [2] (1 μM DOX or 7-de-aDOX, one-site fit) is on record as 0.219 ± 0.010. Also, at CYP2J2 [5], the IC50 worked out at 17.9 µM and affinity was put at a Ki of 8.97 ± 0.01 µM. Also, the “y0 (residual rate of EBS metabolism)” value on CYP2J2 [5] (20 μM EBS, fit to eq S1) amounted to 5.87 ± 2.84. Further, in series [6], the “plasma levels upon immediate exposure” value is 1000 to 10000 nM and the toxic cumulative dose was ~ 50 μM. For the same molecule, the “metabolism by CYP2J2 to form new products (in words)” value at CYP2J2 [7] is “does not metabolize”.

At CYP2J2 [1], `COc1cccc2c1C(=O)c1c(O)c3c(c(O)c1C2=O)C[C@@](O)(/C(C)=N/NC(=O)c1ccccc1)C[C@@H]3O[C@H]1C[C@H](N)[C@H](O)[C@H](C)O1` [ZRN, zorubicin] had a half-maximal inhibitory concentration (IC50) of 6.46 ± 0.03 µM and a Ki of 3.67 ± 0.02 µM. Moreover, the “change in the regioselectivity of AA epoxidation (in words)” value on CYP2J2 [1] (100 μM AA, 0–50 μM anthracycline) is on record as “not a significant change”. Further, the “y0 (residual rate of AA epoxidation at maximum inhibition)” value on CYP2J2 [1] (100 μM AA) is 18.7 ± 3.5 pmol (min)^−1 (nmolCYP2J2)^−1.

B1: CYP2J2 (Homo sapiens) (protein)
chain: T1 sequence (P51589 1-502)
Turning to B1, in series [8], the Km worked out at 10.4 ± 1.6 µM.

The record behind these values is paper PMC5743546 (Biochemistry, 2017).
